In ChEMBL document CHEMBL2440100, “Therapeutic potential of the peptide leucine arginine as a new nonplant bowman-birk-like serine protease inhibitor” (J Med Chem, 2013):
Calls of active or inactive are those of the source. No cut-off for these calls is given here. Where a SMILES comes first, the peptide text is derived from it. Bridges are numbered along the chain shown (N, C = ends).

Assays:
Splenocyte [1] = assay: Antiasthmatic activity in splenocytes isolated from 25 days OVA-immunized BALB/c mouse acute asthma model assessed as reduction of IL-13 and IL-5 production at 100 nM measured after 3 days re-stimulation by ELISA; type: functional, cell-based
Mus musculus [2] = species on record: Mus musculus; assay: Antiasthmatic activity in OVA-immunized BALB/c mouse chronic asthma model assessed as inhibition of tryptase-like protease activity in BAL fluid using tosyl-gly […]-lys-pNA as substrate after 1 hr; type: functional, organism-based
Mus musculus [3] = species on record: Mus musculus; assay: Antiasthmatic activity in OVA-immunized BALB/c mouse chronic asthma model assessed as inhibition of airway inflammation at 100 nM treated intranasally on days 15, 16, 22, and 23 at 30 mins before OVA challenge measured on day 71; type: functional, organism-based
Mus musculus [4] = species on record: Mus musculus; assay: Antiasthmatic activity in OVA-immunized BALB/c mouse chronic asthma model assessed as reduction of methacholine-induced airway hyperreactivity at 100 nM treated intranasally on days 15, 16, 22, and 23 at 30 mins before OVA challenge measured on day 71; type: functional, organism-based
Mus musculus [5] = species on record: Mus musculus; assay: Antiasthmatic activity in OVA-immunized BALB/c mouse acute asthma model assessed as reduction of airway inflammation at 100 nM treated intranasally on days 15, 16, 22, and 23 at 30 mins before OVA challenge by hematoxylin and eosin staining; type: functional, organism-based
[6] = Inhibition of bovine trypsin using benzoyl-L-arginine p-nitroanilide as substrate after 5 to 60 mins; parameters: species or system Bos taurus
Mus musculus [7] = species on record: Mus musculus; assay: Antiasthmatic activity in OVA-immunized BALB/c mouse acute asthma model assessed as reduction of mucus production in PAS-stained lung section at 100 nM treated intranasally on days 15, 16, 22, and 23 at 30 mins before OVA challenge; type: functional, organism-based
Mus musculus [8] = species on record: Mus musculus; assay: Antiasthmatic activity in OVA-immunized BALB/c mouse chronic asthma model assessed as reduction of IgE level in serum at 100 nM treated intranasally on days 15, 16, 22, and 23 at 30 mins before OVA challenge measured on day 71; type: functional, organism-based
Mus musculus [9] = species on record: Mus musculus; assay: Antiasthmatic activity in OVA-immunized BALB/c mouse chronic asthma model assessed as reduction of airway inflammation at 100 nM treated intranasally on days 15, 16, 22, and 23 at 30 mins before OVA challenge by hematoxylin and eosin staining measured on day 71; type: functional, organism-based
Mus musculus [10] = species on record: Mus musculus; assay: Antiasthmatic activity in OVA-immunized BALB/c mouse chronic asthma model assessed as reduction of mMCP-1 level in serum at 100 nM treated intranasally at 30 mins before OVA challenge measured after 30 mins by ELISA; type: functional, organism-based
Mus musculus [11] = species on record: Mus musculus; assay: Antiasthmatic activity in OVA-immunized BALB/c mouse chronic asthma model assessed as reduction of total lung collagen level at 100 nM treated intranasally on days 15, 16, 22, and 23 at 30 mins before OVA challenge measured on day 71 by MSB-staining; type: functional, organism-based
Mus musculus [12] = species on record: Mus musculus; assay: Antiasthmatic activity in OVA-immunized BALB/c mouse chronic asthma model assessed as reduction of 8-isoprostane level in serum at 10 uM treated intranasally by immunoassay; type: functional, organism-based
Mus musculus [13] = species on record: Mus musculus; assay: Antiasthmatic activity in OVA-immunized BALB/c mouse acute asthma model assessed as decrease in number of eosinophils in BAL fluid at 100 nM treated intranasally on days 15, 16, 22, and 23 at 30 mins before OVA challenge; type: functional, organism-based
Mus musculus [14] = species on record: Mus musculus; assay: Antiasthmatic activity in OVA-immunized BALB/c mouse chronic asthma model assessed as plasma histamine release at 0.1 uM treated intranasally after 5 mins by immunoassay; type: functional, organism-based
Mus musculus [15] = species on record: Mus musculus; assay: Antiasthmatic activity in OVA-immunized BALB/c mouse acute asthma model assessed as reduction of IgG2a level in serum at 100 nM treated intranasally on days 15, 16, 22, and 23 at 30 mins before OVA challenge; type: functional, organism-based
Mus musculus [16] = species on record: Mus musculus; assay: Antiasthmatic activity in OVA-immunized BALB/c mouse chronic asthma model assessed as reduction of decrease in smooth muscle area at 100 nM treated intranasally on days 15, 16, 22, and 23 at 30 mins before OVA challenge measured on day 71 by alpha-SMA-staining; type: functional, organism-based; conditions: Muscle tissue
Mus musculus [17] = species on record: Mus musculus; assay: Antiasthmatic activity in OVA-immunized BALB/c mouse acute asthma model assessed as reduction of IgE level in serum at 100 nM treated intranasally on days 15, 16, 22, and 23 at 30 mins before OVA challenge; type: functional, organism-based
Mus musculus [18] = species on record: Mus musculus; assay: Antiasthmatic activity in OVA-immunized BALB/c mouse acute asthma model assessed as reduction of methacholine-induced airway hyperreactivity at 100 nM treated intranasally on days 15, 16, 22, and 23 at 30 mins before OVA challenge; type: functional, organism-based
Mus musculus [19] = species on record: Mus musculus; assay: Antiasthmatic activity in OVA-immunized BALB/c mouse chronic asthma model assessed as inhibition of airway remodeling at 100 nM treated intranasally on days 15, 16, 22, and 23 at 30 mins before OVA challenge measured on day 71; type: functional, organism-based
Mus musculus [20] = species on record: Mus musculus; assay: Antiasthmatic activity in OVA-immunized BALB/c mouse chronic asthma model assessed as reduction of collagen and old fibrin at 100 nM treated intranasally on days 15, 16, 22, and 23 at 30 mins before OVA challenge measured on day 71 by martius scarlet blue-staining; type: functional, organism-based
Mus musculus [21] = species on record: Mus musculus; assay: Antiasthmatic activity in OVA-immunized BALB/c mouse chronic asthma model assessed as decrease in number of eosinophils in BAL fluid at 100 nM treated intranasally on days 15, 16, 22, and 23 at 30 mins before OVA challenge measured on day 71; type: functional, organism-based
Mus musculus [22] = species on record: Mus musculus; assay: Antiasthmatic activity in OVA-immunized BALB/c mouse acute asthma model assessed as reduction of methacholine-induced lung resistance at 100 nM treated intranasally on days 15, 16, 22, and 23 at 30 mins before OVA challenge; type: functional, organism-based
Mus musculus [23] = species on record: Mus musculus; assay: Antiasthmatic activity in OVA-immunized BALB/c mouse chronic asthma model assessed as reduction of area of proliferating smooth muscle cell at 100 nM treated intranasally on days 15, 16, 22, and 23 at 30 mins before OVA challenge measured on day 71 by PCNA+-staining; type: functional, organism-based
Mus musculus [24] = species on record: Mus musculus; assay: Antiasthmatic activity in lymphnode cells isolated from 25 days OVA-immunized BALB/c mouse acute asthma model assessed as reduction of IL-13 and IL-5 production at 100 nM measured after 3 days re-stimulation by ELISA; type: functional, cell-based
Mus musculus [25] = species on record: Mus musculus; assay: Antiasthmatic activity in OVA-immunized BALB/c mouse chronic asthma model assessed as inhibition of tryptase-like protease activity in BAL fluid using tosyl-gly […]-lys-pNA as substrate at 100 nM after 1 hr relative to control; type: functional
Mus musculus [26] = species on record: Mus musculus; assay: Antiasthmatic activity in lymphnode cells isolated from 25 days OVA-immunized BALB/c mouse acute asthma model assessed as reduction of IFN-gamma production at 100 nM measured after 3 days re-stimulation by ELISA; type: functional, cell-based
Mus musculus [27] = species on record: Mus musculus; assay: Antiasthmatic activity in OVA-immunized BALB/c mouse chronic asthma model assessed as plasma histamine release at 10 uM treated intranasally after 5 mins by immunoassay; type: functional, organism-based
Splenocyte [28] = assay: Antiasthmatic activity in splenocytes isolated from 25 days OVA-immunized BALB/c mouse acute asthma model assessed as reduction of IFN-gamma production at 100 nM measured after 3 days re-stimulation by ELISA; type: functional, cell-based

Row | SMILES | Activity (Splenocyte [1]) | inhibition (Mus musculus [2]) | Activity (Mus musculus [3]) | Activity (Mus musculus [4]) | Activity (Mus musculus [5]) | Ki [6] | Activity (Mus musculus [7]) | Activity (Mus musculus [8]) | Activity (Mus musculus [9]) | Activity (Mus musculus [10]) | Activity (Mus musculus [11]) | Activity (Mus musculus [12]) | Activity (Mus musculus [13]) | Activity (Mus musculus [14]) | Activity (Mus musculus [15]) | Activity (Mus musculus [16]) | Activity (Mus musculus [17]) | Activity (Mus musculus [18]) | Activity (Mus musculus [19]) | Activity (Mus musculus [20]) | further results
1 | CC[C@H](C)[C@@H]1NC(=O)[C@@H]2CCCN2C(=O)[C@@H]2CCCN2C(=O)[C@H]([C@@H](C)CC)NC(=O)[C@H](CO)NC(=O)[C@H](CCCCN)NC(=O)[C@H]([C@@H](C)O)NC(=O)[C@@H]2CSSC[C@H](NC1=O)C(=O)N[C@@H](Cc1ccccc1)C(=O)N1CCC[C@H]1C(=O)N[C@@H](CC(=O)O)C(=O)NCC(=O)N[C@@H](CCCNC(=N)N)C(=O)N2 | Active | Dose-dependent effect | Active | Active | Active | 8 nM | Active | Active | Active | Active | Active | inactive | Active | inactive | inactive | Active | Active | Active | Active | Active | Activity (Mus musculus [21]): Active; Activity (Mus musculus [22]): Active; Activity (Mus musculus [23]): Active; Activity (Mus musculus [24]): Active; inhibition (INH) (Mus musculus [25]): 60%
2 | CC(C)C[C@H](N)C(=O)N[C@H](C(=O)N[C@@H](CCCNC(=N)N)C(=O)NCC(=O)N[C@H]1CSSC[C@@H](C(=O)N[C@@H](Cc2ccccc2)C(=O)N[C@H](C(=O)N[C@@H](CCCNC(=N)N)C(=O)O)C(C)C)NC(=O)[C@@H]2CCCN2C(=O)[C@H](CCCCN)NC(=O)[C@@H]2CCCN2C(=O)[C@@H]2CCCN2C(=O)[C@H](Cc2ccc(O)cc2)NC(=O)[C@H](CO)NC(=O)[C@H](CCCCN)NC(=O)[C@H]([C@@H](C)O)NC(=O)[C@H](Cc2c[nH]c3ccccc23)NC1=O)C(C)C (H-LVRGCWTKSYPPKPCFVR-OH; disulfide 5-15) | Active | Dose-dependent effect | Active | Active | Active | 110 nM | Active | Active | Active | Active | Active | Active | Active | inactive | inactive | Active | Active | Active | Active | Active | Activity (Mus musculus [26]): inactive; Activity (Mus musculus [27]): Active; Activity (Mus musculus [21]): Active; Activity (Mus musculus [22]): Active; Activity (Mus musculus [23]): Active; Activity (Mus musculus [24]): Active; Activity (Splenocyte [28]): Active; inhibition (INH) (Mus musculus [25]): 60%
